Measurements published in publication PMC12514245, “Impaired migration and lung invasion of human melanoma by a novel small molecule targeting the transmembrane domain of death receptor p75^NTR” (EMBO Molecular Medicine, 2025).
Where “and” joins values, the source holds several entries; their conditions need not be identical. Identical values can stand only once. Entries after “also recorded” stand apart in the source; their conditions may differ. Like-named read-outs stand apart in the source and are kept apart here.

Columns and labels:
[1] = Cell viability (Presto Blue), A875 NT; type: cell-based, human; conditions: human, A875 NT cells, 2 days; for viability at 2 days, 1 uM: Div17E5 1 uM; for viability at 2 days, 1.5 uM: Div17E5 1.5 uM
Protocol: (§1) To measure the cytotoxic effect of Div17E5, A875 NT or shp75 cells were seeded at 2000 cells per well (in 100 μL DMEM) in a 96-well plate and incubated for 12 h. Next, Div17E5 at various concentrations was added and incubated at 37 °C in 5% CO2 for 2 days. Following treatment, 10 μL Presto Blue® (resazurin, ThermoFIsher) was added to each well of the 96-well plate and incubated for 2 h at 37 °C in 5% CO2. Cellular fluorescence in each well was measured at 535 nm excitation and 615 nm emission using a microtiter plate reader. Data was converted into the relative cell viability (%) from the fluorescence of cells in each treatment relative to that of the DMSO control group (set as 100%).

A875 NT cells = test: Cell viability (Presto Blue), A875 NT; type: cell-based, human
Protocol: as §1

[2] = target: TMD of TNF receptor 2 (TNFR2) (Homo sapiens, UniProt P20333); test: 2D NMR chemical shift perturbation, TNFR2 TMD in bicelles; type: binding; conditions: 4 molar excess compound
Sequence of TMD of TNF receptor 2 (TNFR2) (P20333 258-290 limits assumed): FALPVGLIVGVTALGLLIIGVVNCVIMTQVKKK

WM115 cells = test: Boyden chamber chemotaxis assay, WM115; type: cell-based, human; conditions: for values normalized to vehicle, mean (Figure 6E): mean of EXP1-3; for values normalized to vehicle (Figure 6E): single experiments EXP1-3
Protocol: For Boyden chamber assay, Corning® BioCoat™ Matrigel® Invasion Chambers 8.0 µm PET Membrane were used (cat. no. 354480). A875 NT or WM115 cells were serum-starved for 16 h and then seeded at 60,000 cells per well in serum-free media under different conditions, including DMSO (vehicle) or small molecules Div17E5 or Np75-4A22 at different concentrations to the top chamber of the Matrigel-coated trans-well chamber. The pan-caspase inhibitor Q_VD_poH (at 5 µM) was also introduced in the top chamber in some experiments. Two different chemoattractants, NGF (at 50 ng/ml or 100 ng/ml as indicated) or 10% FBS were added to the bottom chamber. Assays were carried out for 8 h after which filters were fixed in 4% PFA and stained with DAPI. Cells that had remained on the top of the filter were gently scrapped away with a cotton tip. The filter lower side was imaged on an inverted fluorescence microscope and counted using ImageJ software (NIH).

[3] = Plasma pharmacokinetics in mice; type: in vivo, C57BL/6 mice; conditions: for Cmax: read-out: C0/Cmax; for Vd: read-out: Vss
[4] = target: TMD of TrkB receptor tyrosine kinase (Homo sapiens, UniProt Q16620); test: 2D NMR chemical shift perturbation, TrkB TMD in bicelles; type: binding; conditions: 4 molar excess compound
Sequence of TMD of TrkB receptor tyrosine kinase (Q16620 419-466): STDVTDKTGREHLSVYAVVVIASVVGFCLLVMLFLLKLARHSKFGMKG

[5] = N=3, read-out: Cell Viability, Mean
[6] = read-out: Cell Viability, n1-n3
[7] = C57BL/6, mouse, IV 3 mg/kg, female, plasma
[8] = C57BL/6, mouse, IV 3 mg/kg, male, plasma
[9] = C57BL/6, mouse, PO 10 mg/kg, female, plasma
[10] = C57BL/6, mouse, PO 10 mg/kg, male, plasma

Molecule `Oc1ccc(-c2cncc(Nc3ccc(Br)c(Cl)c3)n2)cc1` [Div17E5] has a viability at 2 days, 0.5 uM ([1]; Div17E5 0.5 uM, N=3) of 79%, a viability at 2 days, 1 uM [1, 5] of 75% and a viability at 2 days, 1 uM [1, 6] of 77%. For the same molecule, the viability at 2 days, 1.5 uM [1, 5] was 65%, the viability at 2 days, 1.5 uM [1, 6] was 71% and the “Cell Viability, n1-n3” value (A875 NT cells; Div17E5 0.5 uM, 2 days) was 76%. For the same molecule, the “Cell Viability, n1-n3” value (A875 NT cells; Div17E5 1 uM, 2 days) was 69% and 80%, the “Cell Viability, n1-n3” value (A875 NT cells; Div17E5 1.5 uM, 2 days) was 66% and the “Cell Viability, n1-n3” value (A875 NT cells; Div17E5 2.5 uM, 2 days) was 61% and 52%. For the same molecule, the “Cell Viability, n1-n3” value (A875 NT cells; Div17E5 5 uM, 2 days) was 51% and 57%, the “Cell Viability, n1-n3” value (A875 NT cells; Div17E5 7.5 uM, 2 days) was 44% and 51% and the “Cell Viability, n1-n3” value (A875 NT cells; Div17E5 10 uM, 2 days) was 39% and 42%. It also gave a viability at 0.5 µM (A875 NT cells; Homo sapiens, A875, 48 h, Div17E5 0.5 uM, 2 days, read-out: Cell Viability, n1-n3) of 85%, a viability at 2 µM (A875 NT cells; Homo sapiens, A875, 48 h, Div17E5 2 uM, 2 days, read-out: Cell Viability, n1-n3) of 67% and a viability at 2.5 µM (A875 NT cells; Homo sapiens, A875, 48 h, Div17E5 2.5 uM, 2 days, N=3, read-out: Cell Viability, Mean) of 59%. It also gave a viability at 2.5 µM (A875 NT cells; Homo sapiens, A875, 48 h, Div17E5 2.5 uM, 2 days, read-out: Cell Viability, n1-n3) of 65%, a viability at 5 µM (A875 NT cells; Homo sapiens, A875, 48 h, Div17E5 5 uM, 2 days, N=3, read-out: Cell Viability, Mean) of 55% and a viability at 5 µM (A875 NT cells; Homo sapiens, A875, 48 h, Div17E5 5 uM, 2 days, read-out: Cell Viability, n1-n3) of 58%. It also gave a viability at 7.5 µM (A875 NT cells; Homo sapiens, A875, 48 h, Div17E5 7.5 uM, 2 days, N=3, read-out: Cell Viability, Mean) of 50%, a viability at 7.5 µM (A875 NT cells; Homo sapiens, A875, 48 h, Div17E5 7.5 uM, 2 days, read-out: Cell Viability, n1-n3) of 55% and a viability at 10 µM (A875 NT cells; Homo sapiens, A875, 48 h, Div17E5 10 uM, 2 days, read-out: Cell Viability, n1-n3) of 49%. The cell viability (A875 NT cells; above 10 μM) was “sensitive” and the cell viability (A875 NT cells; dose-dependent) was “decreased viability”.

In the case of `Cc1cccc(-c2cncc(Nc3ccc(Br)c(Cl)c3Cl)n2)c1C` [Np75-4A22], the “chemical shift perturbations, TNFR2 TMD” value [2] was “essentially no interaction; also recorded: no or minimal chemical shift perturbations”, the “values normalized to vehicle, mean (Figure 6E)” value (WM115 cells; 100 ng/ml NGF & 1 uM 4A22) was 1.0063 and the “values normalized to vehicle (Figure 6E)” value (WM115 cells; 100 ng/ml NGF & 1 uM 4A22) was 0.9175 and 0.9379 and 1.163. The “spontaneous migration of WM115 cells” value (WM115 cells; 1μM) was “without affecting the spontaneous migration”, the “values normalized to vehicle, mean (Figure 6E)” value (WM115 cells; 1 uM 4A22) was 0.8431 and the “values normalized to vehicle (Figure 6E)” value (WM115 cells; 1 uM 4A22) was 0.9343 and 0.8878 and 0.7073. The “NGF-induced migration of WM115 cells” value (WM115 cells; 1 μM, NGF 100 ng/ml) was “blocked this activity”, the AUC(0-t) [3, 7] was 1670 ng·h/mL and the Cmax ([3]; C57BL/6, mouse, IV 3 mg/kg, female, plasma, back extrapolated) was 3400 ng/mL. It also gave a clearance ([3]; C57BL/6, mouse, IV 3 mg/kg, female, plasma, read-out: CL) of 29.5 mL/min/kg, a half-life ([3]; C57BL/6, mouse, IV 3 mg/kg, female, plasma, read-out: T1/2 (converted)) of 8.64 h and a Vd [3, 7] of 3.23 L/kg. For the same molecule, the AUC(0-t) [3, 8] was 2070 ng·h/mL, the Cmax ([3]; C57BL/6, mouse, IV 3 mg/kg, male, plasma, back extrapolated) was 4710 ng/mL and the clearance ([3]; C57BL/6, mouse, IV 3 mg/kg, male, plasma, read-out: CL) was 23.9 mL/min/kg. For the same molecule, the half-life ([3]; C57BL/6, mouse, IV 3 mg/kg, male, plasma, read-out: T1/2 (converted)) was 7.45 h, the Vd [3, 8] was 2.09 L/kg and the AUC(0-t) [3, 9] was 2680 ng·h/mL. The Tmax [3, 9] was 0.5 h, the bioavailability [3, 9] was 48% and the Cmax [3, 9] was 1030 ng/mL. For the same molecule, the AUC(0-t) [3, 10] was 4730 ng·h/mL, the Tmax [3, 10] was 0.5 h and the bioavailability [3, 10] was 69%. The Cmax [3, 10] was 1310 ng/mL, the clearance ([3]; i.v. 3 mg/kg, male and female) was “low clearance” and the half-life ([3]; i.v. 3 mg/kg, male and female) was “long half-life”. For the same molecule, the absorption ([3]; oral 10 mg/kg, male and female) was “rapid absorption”, the oral bioavailability ([3]; oral 10 mg/kg, male and female, 10 mg/kg) was “good oral bioavailability; also recorded: high oral bioavailability” and the “chemical shift perturbations, TrkB TMD” value [4] was “mostly non-specific interaction; also recorded: no or minimal chemical shift perturbations”.
